Measured values taken from patent publication US20140296248A1, “METHODS AND COMPOSITIONS FOR PREDICTING RESISTANCE TO ANTICANCER TREATMENT” (Stichting het Nederlands Kanker Instiuut-Antoni van …, priority 2011, published 2014).
Entries after “also recorded” stand apart in the source; their conditions may differ.

Legend:
[1] = tested on: SK-CO-1 colorectal cancer cells (KRASV12); experiment: Long-term colony formation assay in SK-CO-1 cells; type: cell-based, human; settings: for effect of recombinant TGFβ on response of SK-CO-1 cells to AZD6244: TGFβ plus AZD6244, TGFβ-dosage dependent
Description: (§1) Cells were seeded into 6-well plates (2-5×10^4 cells/well) and cultured both in the absence and presence of drugs as indicated. More details are described in Huang et al., 2009 (Huang et al., 2009). All knockdown and overexpression experiments were done by retroviral or lentiviral infection. All relevant assays were performed independently at least three times.

ERK signaling = ERK signaling in MED12-suppressed cancer cells in presence of drugs; type: cell-based, human
Description: The cells were fixed, stained and photographed after 10 (untreated) or 28 days (treated). […] The cells were fixed, stained and photographed after 14 (untreated) or 28 days (treated). […] G) Colony formation assay of Huh-7 cells expressing pLKO control or shMED12 vectors (#4 and #5) were cultured in 2 μM sorafenib. The cells were fixed, stained and photographed after 14 (untreated) or 21 days (treated). […] Huh-7 cells expressing pLKO control or shMED12 vectors were grown in the absence or presence of 4 μM sorafenib for 6 hours and the cell lysates were harvested for western blotting analysis.

[2] = tested on: H3122 cells (EML4-ALK NSCLC); experiment: Long-term colony formation / cell proliferation assay in H3122 cells; type: cell-based, human; settings: for effect of recombinant TGFβ on crizotinib response of H3122 cells: TGFβ in combination with crizotinib, TGFβ-dosage dependent
Description: (§2) Single cell suspensions of the lung cancer cell lines were seeded into 6-well plates (2×10^4 cells/well) and cultured both in the absence and presence of the ALK inhibitors. At the endpoints of colony formation assays, cells were fixed with formaldehyde, stained with crystal violet (0.1% w/v) and photographed. All relevant assays were performed independently at least three times. All knockdown and overexpression experiments were done by retroviral or lentiviral infections.
(§3) Cells were seeded into 6-well plates (2-5×10^4 cells/well) and cultured both in the absence and presence of drugs as indicated. […] All knockdown and overexpression experiments were done by retroviral or lentiviral infection. All relevant assays were performed independently at least three times.

phospho-ERK [3] = experiment: Western blotting of phospho-ERK in H3122 cells; type: cell-based, human; settings: 20 nM NVP-TAE684, 24 hours
Description: (A) MED12^KD cells retain phospho-ERK levels in the presence of ALK inhibitor in EML4-ALK cells. H3122 cells expressing controls (pRS or shGFP) or shMED12 vectors were gown in the absence or presence of 20 nM NVP-TAE684 for 24 hours and the cell lysates were harvested for western blotting analysis. (B) SMARCE1^KD cells have elevated phospho-ERK in EML4-ALK cells. H3122 cells expressing controls (pRS or shGFP) or shSMARCE1 vectors were gown in the absence or presence of 20 nM NVP-TAE684 for 24 hours and the cell lysates were harvested for western blotting analysis. (C) MED12^KD cells have elevated phospho-ERK levels in EGFR mutant cells.
Given that loss of MED12 or SMARCE1 causes resistance to multiple tyrosine kinase inhibitors in NSCLC cell lines, Applicants asked whether the activity of downstream components of receptor tyrosine kinase signaling is altered. ERK is a key downstream component and its phosphorylation status positively correlates with its activation that can be determined by specific antibodies against the phosphorylated form of ERK. H3122 cells were infected with two independent controls shRNA vectors or shRNAs targeting either MED12 or SMARCE1 and confirmed loss of MED12 or SMARCE1 protein by immunoblotting (FIGS. 16A and B). […]

[4] = tested on: human NSCLC cell lines that harbor EML4-ALK translocations; settings: Galkin 2007; Koivunen 2008; Soda 2007; cited from earlier work
[5] = tested on: A375 melanoma cells (BRAFV600E); experiment: Long-term colony formation assay in A375 cells; type: cell-based, human; settings: for drug response of MED12 knockdown A375 cells: suppression of MED12; for effect of recombinant TGFβ on response of A375 cells to PLX4032 and AZD6244: TGFβ plus PLX4032 or AZD6244, TGFβ-dosage dependent
Description: as §3

[6] = tested on: H1993 cells (MET-amplified NSCLC); experiment: Long-term colony formation assay in H1993 cells; type: cell-based, human
Description: as §2, §3

[7] = tested on: EBC-1 cells (MET-amplified NSCLC); experiment: Long-term colony formation assay in EBC-1 cells; type: cell-based, human
Description: as §2, §3

[8] = tested on: PC9 cells (EGFR delE746-A750 NSCLC); experiment: Long-term colony formation / cell proliferation assay in PC9 cells; type: cell-based, human
Description: as §2, §3

[9] = tested on: H3255 cells (EGFR L858R NSCLC); experiment: Long-term colony formation / cell proliferation assay in H3255 cells; type: cell-based, human
Description: as §2, §3

[10] = tested on: PC9 cells (EGFR delE746-A750 NSCLC); settings: parental cells, low nanomolar concentrations; cited from earlier work
[11] = tested on: H3255 cells (EGFR L858R NSCLC); settings: parental cells, low nanomolar concentrations; cited from earlier work
phospho-ERK [12] = experiment: Western blotting of phospho-ERK in PC9 cells; type: cell-based, human; settings: 25 nM gefitinib, 8 hours
Description: (A) Validation of independent shRNAs (in pLKO vector) targeting DABP2IP in PC9 cells. […] The cells were fixed, stained and photographed after 2 weeks (untreated) or 4 weeks (EGFR inhibitors treatment). (B) The knockdown ability of each of the shRNAs was measured by examining the DAB2IP mRNA levels by qRT-PCR. Error bars denote standard deviation (SD).
To validate the results of Applicants' focused shRNA mini-screen, Applicants individually introduced the five DAB2IP shRNAs from the TRC shRNA collection into PC9 cells (FIG. 14A). […] Next, Applicants addressed whether loss of DAB2IP affects the activity of downstream signaling components of the RAS pathway, in particular the phosphorylation (activation) status of ERK. […] Next, Applicants individually introduced the five NF1 shRNAs from the TRC shRNA collection into PC9 cells (FIG. 15A).

Huh-7 HCC cells = experiment: Long-term colony formation assay in Huh-7 cells; type: cell-based, human
Description: as §1

Compound: Cn1cnc2c(F)c(Nc3ccc(Br)cc3Cl)c(C(=O)NOCCO)cc21 [AZD6244, seluteminib]
- sensitivity of SK-CO-1 cells ([1]; parental cells): highly sensitive
- drug response of MED12 knockdown SK-CO-1 cells ([1]; shMED12, 0.5 μM AZD6244): conferred resistance
- activation of ERK signaling by MED12 suppression in the presence of drug (ERK signaling): persists

Compound: Cc1cccc(-c2nn3c(c2-c2ccnc4ccc(C(N)=O)cc24)CCC3)n1 [LY2157299]
- proliferation under monotherapy, control and MED12KD H3122 cells ([2]; 1 μM LY2157299 alone, all cells): little effect

Compound: COc1cc(N2CCC(N3CCN(C)CC3)CC2)ccc1Nc1ncc(Cl)c(Nc2ccccc2S(=O)(=O)C(C)C)n1 [NVP-TAE684]
- drug response of ARID1A knockdown H3122 cells ([2]; shARID1A, 300 nM crizotinib or 2.5 nM NVP-TAE684): confer resistance
- drug response of MED12 knockdown H3122 cells ([2]; shMED12 vectors, 300 nM crizotinib or 2.5 nM NVP-TAE684): confer resistance; also recorded: conferred resistance
- drug response of SMARCE1 knockdown H3122 cells ([2]; shSMARCE1, 300 nM crizotinib or 2.5 nM NVP-TAE684): confer resistance
- ERK phosphorylation in MED12 knockdown H3122 cells in presence of inhibitor (phospho-ERK [3]; shMED12): maintained higher levels of ERK phosphorylation
- phosphorylated ERK in SMARCE1 knockdown H3122 cells in presence of inhibitor (phospho-ERK [3]; shSMARCE1): maintained higher levels of phosphorylated ERK
- inhibition of EML4-ALK NSCLC cell lines [4]: potently inhibit

Compound: O=C(NOC[C@H](O)CO)c1ccc(F)c(F)c1Nc1ccc(I)cc1F [PD-0325901]
- drug response of MED12 knockdown A375 cells [5]: conferred resistance

Compound: CCCS(=O)(=O)Nc1ccc(F)c(C(=O)c2c[nH]c3ncc(Cl)cc23)c1F [PLX4720]
- drug response of MED12 knockdown A375 cells [5]: conferred resistance

Compound: C[C@@H](Oc1cc(-c2cnn(C3CCNCC3)c2)cnc1N)c1c(Cl)ccc(F)c1Cl [crizotinib]
- drug response of ARID1A knockdown H1993 cells ([6]; shARID1A #1 and #2): conferred resistance
- drug response of SMARCE1 knockdown H1993 cells ([6]; shSMARCE1#1 and #2): conferred resistance
- drug response of SMARCE1 knockdown H1993 cells reconstituted with SMARCE1-ND ([6]; shSMARCE1 plus SMARCE1-ND): restored the sensitivity
- drug response of SMARCE1 knockdown EBC-1 cells ([7]; shSMARCE1#1 and #2): conferred resistance
- drug response of SMARCE1 knockdown EBC-1 cells reconstituted with SMARCE1-ND ([7]; shSMARCE1 plus SMARCE1-ND): restored the sensitivity

Compound: C#Cc1cccc(Nc2ncnc3cc(OCCOC)c(OCCOC)cc23)c1 [erlotinib]
- drug response of DAB2IP knockdown PC9 cells ([8]; shDAB2IP#1 and #3, 50 nM): conferred resistance
- drug response of NF1 knockdown PC9 cells ([8]; shNF1#2 and #5, 50 nM): conferred resistance
- drug response of control H3255 cells ([9]; pRS and shGFP control cells): effectively eradicated
- drug response of MED12 knockdown H3255 cells ([9]; shMED12): insensitive
- sensitivity of PC9 cells [10]: exquisitely sensitive
- sensitivity of H3255 cells [11]: exquisitely sensitive

Compound: COc1cc2ncnc(Nc3ccc(F)c(Cl)c3)c2cc1OCCCN1CCOCC1 [gefitinib]
- phosphorylation of ERK in shDAB2IP PC9 cells treated with drug (phospho-ERK [12]): maintained
- activation of ERK signaling by MED12 suppression in the presence of drug (ERK signaling): persists

Compound: CNC(=O)c1cc(Oc2ccc(NC(=O)Nc3ccc(Cl)c(C(F)(F)F)c3)cc2)ccn1 [sorafenib]
- sensitivity of Huh-7 cells (Huh-7 HCC cells; parental cells): sensitive
- drug response of MED12 knockdown Huh-7 cells (Huh-7 HCC cells; shMED12, 2 μM sorafenib): became resistant
- activation of ERK signaling by MED12 suppression in the presence of drug (ERK signaling): persists

Compound: TGFβ
- effect of recombinant TGFβ on crizotinib response of H3122 cells [2]: continued to proliferate
- effect of recombinant TGFβ on crizotinib response of H3122 cells ([2]; listed as Recombinant TGFβ): leads to resistance
- effect of recombinant TGFβ on response of PC9 cells to EGFR inhibitors ([8]; TGFβ plus EGFR inhibitors): conferred resistance
- effect of recombinant TGFβ on response of H3255 cells to EGFR inhibitors ([9]; TGFβ plus EGFR inhibitors): conferred resistance
- effect of recombinant TGFβ on response of A375 cells to PLX4032 and AZD6244 [5]: dosage dependent resistance
- effect of recombinant TGFβ on response of A375 cells to PLX4032 and AZD6244 ([5]; listed as Recombinant TGFβ): leads to resistance
- proliferation of A375 cells, recombinant TGFβ alone ([5]; TGFβ treatment alone): growth inhibition
- effect of recombinant TGFβ on response of SK-CO-1 cells to AZD6244 [1]: dosage dependent resistance
- effect of recombinant TGFβ on response of SK-CO-1 cells to AZD6244 ([1]; listed as Recombinant TGFβ): leads to resistance
- proliferation of Huh-7 cells, recombinant TGFβ alone (Huh-7 HCC cells; TGFβ treatment alone): growth inhibition
